According to US7985766B2, “Combination of anticholineric and β mimetics for the treatment of respiratory diseases” (MEDA Pharma GmbH & Co. KG, priority 2004, dated 2011):
Where two headings read alike, the source gives them in different places.

Test system: guinea pigs
Conditions: for inhibition of acetylcholine-induced bronchoconstriction (bronchodilatory effect): 1 μg/kg, single drug; for inhibition of acetylcholine-induced bronchoconstriction (bronchodilatory effect) / inhibition of the bronchospasm: i.th.; for inhibition of acetylcholine-induced bronchoconstriction, dose dependence: i.th. 1-10 μg/kg, acetylcholine 10 μg/kg i.v., anesthetized male guinea pigs
Protocol: After cannulating the trachea, animals were respired using a small animal respiratory pump with a constant tidal volume and a rate of 60 breaths/min. The lung resistance was measured by using a rodent lung function recording system (MUMED, London, UK). Compounds were given intravenously (i.v.) via a catheter placed in the right jugular vein. After surgery, the animals were allowed to stabilize. 10 min before acetylcholine (10 μg/kg, i.v.) administration, the guinea pigs were disconnected from the respirator and either vehicle (10 mg/lactose) or different amounts of drugs (blended with lactose) were administered intratracheally (i.th.) using a syringe. The trachea was then reconnected to the respirator and changes in pulmonary mechanics were recorded. Acetylcholine (10 μg/kg) was injected intravenously in every 10 minutes for 60 min.

| Compound | inhibition of acetylcholine-induced bronchoconstriction (bronchodilatory effect) | inhibition of the bronchospasm (3 μg/kg) | inhibition of the bronchospasm (10 μg/kg) | inhibition of acetylcholine-induced bronchoconstriction, dose dependence |
| --- | --- | --- | --- | --- |
| C[N+]1(C)CC[C@@H](OC(=O)[C@](O)(c2ccccc2)C2CCCC2)C1.[Br-] [R,R-glycopyrrolate] | not effective | ca. 40% | about 80% | dose-dependently inhibited |
| COc1ccc(CC(C)NCC(O)c2ccc(O)c(NC=O)c2)cc1 (stereo not drawn) [formoterol] | did not show any bronchodilatory effects | – | – | dose-dependently inhibited |
